# Assay results from patent US20170136008A1, “OXABICYCLOHEPTANES AND OXABICYCLOHEPTENES FOR THE TREATMENT OF OVARIAN CANCER” (priority 2014, published 2017).
# Columns and labels:
# PP2A = target: T1, PP2A (Homo sapiens, UniProt P67775); assay: PP2A phosphatase activity assay; assay type: cell-based; conditions: cell lysate from SKOV-3 cells, 2 h treatment
# T1 construct: endogenous in cells; host or cells: SKOV-3 ovarian cancer cells (lysate supernatant, assayed with the Millipore PP2A Phosphatase Assay Kit)
# T1 sequence (P67775 whole entry): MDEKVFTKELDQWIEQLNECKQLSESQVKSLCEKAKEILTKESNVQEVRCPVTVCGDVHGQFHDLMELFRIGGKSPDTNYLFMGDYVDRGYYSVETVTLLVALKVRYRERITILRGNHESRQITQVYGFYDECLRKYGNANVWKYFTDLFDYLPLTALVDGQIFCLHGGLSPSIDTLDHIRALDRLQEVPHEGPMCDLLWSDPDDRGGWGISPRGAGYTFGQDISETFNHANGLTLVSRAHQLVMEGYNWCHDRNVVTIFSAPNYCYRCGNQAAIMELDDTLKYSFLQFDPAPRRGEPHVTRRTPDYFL
# T1 sequence (P30153 2-589 partner limits assumed): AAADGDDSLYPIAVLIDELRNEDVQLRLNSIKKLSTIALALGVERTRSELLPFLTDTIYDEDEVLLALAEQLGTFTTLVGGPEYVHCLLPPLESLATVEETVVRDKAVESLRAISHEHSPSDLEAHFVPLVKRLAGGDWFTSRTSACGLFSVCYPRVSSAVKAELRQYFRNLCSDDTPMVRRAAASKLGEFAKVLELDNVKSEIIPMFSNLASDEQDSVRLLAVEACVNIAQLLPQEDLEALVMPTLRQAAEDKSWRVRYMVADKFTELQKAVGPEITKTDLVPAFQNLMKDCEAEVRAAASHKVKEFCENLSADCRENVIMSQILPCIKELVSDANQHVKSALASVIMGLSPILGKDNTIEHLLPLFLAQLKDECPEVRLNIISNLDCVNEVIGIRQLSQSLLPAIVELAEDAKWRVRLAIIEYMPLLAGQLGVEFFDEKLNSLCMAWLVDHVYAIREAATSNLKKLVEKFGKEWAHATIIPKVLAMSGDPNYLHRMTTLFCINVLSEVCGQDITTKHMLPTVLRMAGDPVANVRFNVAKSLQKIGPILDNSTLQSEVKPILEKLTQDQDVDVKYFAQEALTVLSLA
# Experimental: Ovarian cancer cells were grown to 80% confluence in 100 mm dishes and treated with LB100 as indicated and prepared as described previously (Wei, D. et al. 2013). Following treatment for 2 h, cells were washed twice with cold PBS (pH7.4) and lysed in lysis buffer (20 mmol/L imidazole-HCL, 2 mmol/L EDTA, 2 mmol/L EGTA, pH 7.0) supplemented with protease inhibitors (Roche) for 30 minutes on ice. Cell lysates were sonicated for 10 s then centrifuged at 2,000×g for 5 min. Supernatants were assayed with the PP2A Phosphatase Assay Kit (Millipore, Billerica, Mass.) according to the manufacturer's instructions. Experiments were performed in triplicate, and the data are presented as a percent mean of relative PP2A activity compared to control ±SD.
# [1] = test system: SKOV-3/f-Luc intraperitoneal xenografts; assay: In vivo intraperitoneal ovarian cancer model; parameters: species or system mouse
# Experimental: Five- to seven-week-old female nude athymic mice (nu/nu) were obtained from NCI (Frederick, Md.), maintained in accredited animal facilities and used as stipulated by the U.S. Public Health Service Policy on Humane Care and Use of Laboratory Animals, in accordance with institutional reviews (http://oacu.odnih.gov). 10^6 SKOV-3/f-Luc cells were suspended in 100 μL PBS and injected into the intraperitoneal (i.p.) cavity. […] Following tumor inoculation, mice were dosed on days 4, 6, 8, 10, 12 and 14. Dose and treatment schedule were established based on the activity of each agent reported in previous studies (Wei, D. et al. 2013; Lu, J. et al. 2009; Mabuchi, S. et al. 2007). […] Tumor growth was measured twice a week via bioluminescence imaging (BLI) as previously described (Bakhsheshian, J. et al. 2013). D-Luciferin (150 mg/kg, 3 mg/100 μL PBS) was administered via I.P. injection. Relative intensity of the BLI signal for each mouse was calculated by dividing the total luminescence for each session by the total luminescence measured on day 1 of treatment. Mice were continuously observed until indicated euthanasia endpoints (e.g. significant weight loss, ascites). Toxicity of the treatment regimens was assessed by the degree of weight loss and the overall health status was continuously monitored by a veterinarian on staff. […] After 4 h, mice were euthanized and tumors were dissected from the intraperitoneal cavity, snap-frozen in liquid nitrogen, and lysed as described above.
# Tumors were established in nude athymic female mice via i.p. injection of SKOV-3 cells transfected with firefly luciferase. […] Following the final treatment, mice were observed until pre-determined health concerns necessitated euthanization. Dose and treatment schedules were determined from biologic profiles of each agent determined in previous studies (Wei, D. et al. 2013; Lu, J. et al. 2009; Mabuchi, S. et al. 2009) and disease progression was monitored by BLI.
# [2] = test system: BRCA1, Wee1, Chk1, γH2AX phosphorylation in SKOV-3 tumors; assay: Ex-vivo western blot of intraperitoneal tumors; assay type: in vivo, mouse; conditions: LB100 alone 1.5 mg/kg, 4 h
# Experimental: Whole cell and homogenized tumor tissues were lysed in NP-40 lysis buffer [50 mM Tris/HCl, pH 7.4, 150 mM NaCl and 1% Nonidet P40, supplemented with Complete Protrase Inhibitor Cocktail tablets and PhosStop phosphatase inhibitors (Roche, Indianapolis, Ind.)] and prepared as previously described (Madigan, J. P. et al. 2009). Protein (40 μg) was resolved on SDS/PAGE (12% or 15% gels) and transferred onto Immobilon PVDF membrane. The membrane was then blocked for 1 hour at room temperature in 5% (w/v) non-fat milk in TBS-Tween and probed overnight with primary antibodies. […]
# Five- to seven-week-old female nude athymic mice (nu/nu) were obtained from NCI (Frederick, Md.), maintained in accredited animal facilities and used as stipulated by the U.S. Public Health Service Policy on Humane Care and Use of Laboratory Animals, in accordance with institutional reviews (http://oacu.odnih.gov). […] Tumor growth was measured twice a week via bioluminescence imaging (BLI) as previously described (Bakhsheshian, J. et al. 2013). […] Relative intensity of the BLI signal for each mouse was calculated by dividing the total luminescence for each session by the total luminescence measured on day 1 of treatment. […] Toxicity of the treatment regimens was assessed by the degree of weight loss and the overall health status was continuously monitored by a veterinarian on staff. […]
structure (smiles),measurement,setting,value
CN1CCN(C(=O)C2C(C(=O)O)[C@H]3CC[C@@H]2O3)CC1 (some centres unmarked) [LB100],PP2A enzymatic function,PP2A,concentration-dependent decrease
same,"day by which massive ascites developed, necessitating euthanasia",[1]; LB100 alone 1.5 mg/kg i.p.,≤ 25 days
same,tumor growth as assessed by BLI,[1]; LB100 alone 1.5 mg/kg i.p.,did not alter tumor growth
same,relative intensity of BLI signal (vs day 1 of treatment),"[1]; day 25, each drug 1.5 mg/kg i.p., 6 doses every other day, LB100 1 h before cisplatin in combination",12.4±6.7
same,"phosphorylation of BRCA1, Wee1, Chk1, γH2AX",[2],induced hyperphosphorylation
